16 compounds from ChEMBL document CHEMBL4219210, “Discovery and biological evaluation of novel pyrazolopyridine derivatives as potent and orally available PI3Kδ inhibitors” (Bioorg Med Chem, 2018) can be followed below.

For data set [1], the target named is PI3-kinase p110-delta/p85-alpha (Homo sapiens, UniProt O00329). As to the kind of experiment: Inhibition of recombinant human full length N-terminal His6-tagged PI3K p110delta/untagged recombinant full length human p85alpha expressed in baculovirus infected Sf21 insect cells using PIP2 as substrate after 35 to 40 mins by HTRF assay. (In general: TR-FRET usually uses a lanthanide donor and a delayed reading to cut background.)

Data set [2] in a line: Stability in BALB/c mouse plasma assessed as parent compound remaining at 2 uM after 16 hrs in absence of NaF by LC-MS/MS analysis. Format: ADME, cell-free. The following applies: read-out: Stability.
The nature of data set [3]: Stability in BALB/c mouse plasma assessed as parent compound remaining at 2 uM after 16 hrs in presence of NaF by LC-MS/MS analysis. Format: ADME, cell-free. The following applies: read-out: Stability.
The species entered for data set [4] is Homo sapiens. Nature of the data set: Selectivity ratio of IC50 for recombinant human N-terminal His6-tagged full length PI3K p110alpha/untagged recombinant full length human p85alpha to IC50 for recombinant human full length N-terminal His6-tagged PI3K p110delta/untagged recombinant full length human p85alpha expressed in baculovirus infected Sf21 insect cells.

Data set [5] is described as follows: Half life in BALB/c mouse plasma at 1 mg/kg, iv followed by po dosing at 3 mg/kg by LC-MS/MS analysis. In kind it is ADME, organism-based.
Data set [6] can be described thus: Tmax in BALB/c mouse plasma at 1 mg/kg, iv followed by po dosing at 3 mg/kg by LC-MS/MS analysis. In kind it is ADME, organism-based.
Data set [7] in a line: Volume of distribution at steady state in BALB/c mouse plasma at 1 mg/kg, iv followed by po dosing at 3 mg/kg by LC-MS/MS analysis. Format: ADME, organism-based. The following applies: read-out: Vdss.
Data set [8] deals with PI3-kinase p110-alpha/p85-alpha (Homo sapiens, UniProt P42336). Nature of the data set: Inhibition of recombinant human N-terminal His6-tagged full length PI3K p110alpha/untagged recombinant full length human p85alpha expressed in baculovirus infected Sf21 insect cells using phosphatidylinositol as substrate after 3 hrs by kinase glo reagent based luminescence assay. Background: Kinase-Glo measures the ATP left after a reaction by luminescence.

A short description of data set [9]: AUC in BALB/c mouse plasma at 3 mg/kg, po by LC-MS/MS analysis. Format: ADME, organism-based.
A short description of data set [10]: Oral bioavailability in BALB/c mouse plasma at 3 mg/kg by LC-MS/MS analysis. Format: ADME, organism-based.
The nature of data set [11]: Total clearance in BALB/c mouse plasma at 1 mg/kg, iv followed by po dosing at 3 mg/kg by LC-MS/MS analysis. Format: ADME, organism-based.
Data set [12] can be described thus: Cmax in BALB/c mouse plasma at 1 mg/kg, iv followed by po dosing at 3 mg/kg by LC-MS/MS analysis. In kind it is ADME, organism-based.
The target in data set [13] is PI3K p110 beta/p85 alpha (Homo sapiens, UniProt P42338). Nature of the data set: Inhibition of recombinant human full length N-terminal His6-tagged PI3K p110beta/untagged recombinant full length human p85alpha expressed in baculovirus infected Sf21 insect cells using PIP2 as substrate after 35 to 40 mins by HTRF assay.
The target in data set [14] is Phosphatidylinositol 4,5-bisphosphate 3-kinase catalytic subunit gamma isoform (Homo sapiens, UniProt P48736). Nature of the data set: Inhibition of recombinant human full length N-terminal His-tagged PI3Kgamma expressed in Sf9 insect cells using PIP2 as substrate after 35 to 40 mins by HTRF assay.
Chain of Phosphatidylinositol 4,5-bisphosphate 3-kinase catalytic subunit gamma isoform (P48736 whole entry, canonical isoform): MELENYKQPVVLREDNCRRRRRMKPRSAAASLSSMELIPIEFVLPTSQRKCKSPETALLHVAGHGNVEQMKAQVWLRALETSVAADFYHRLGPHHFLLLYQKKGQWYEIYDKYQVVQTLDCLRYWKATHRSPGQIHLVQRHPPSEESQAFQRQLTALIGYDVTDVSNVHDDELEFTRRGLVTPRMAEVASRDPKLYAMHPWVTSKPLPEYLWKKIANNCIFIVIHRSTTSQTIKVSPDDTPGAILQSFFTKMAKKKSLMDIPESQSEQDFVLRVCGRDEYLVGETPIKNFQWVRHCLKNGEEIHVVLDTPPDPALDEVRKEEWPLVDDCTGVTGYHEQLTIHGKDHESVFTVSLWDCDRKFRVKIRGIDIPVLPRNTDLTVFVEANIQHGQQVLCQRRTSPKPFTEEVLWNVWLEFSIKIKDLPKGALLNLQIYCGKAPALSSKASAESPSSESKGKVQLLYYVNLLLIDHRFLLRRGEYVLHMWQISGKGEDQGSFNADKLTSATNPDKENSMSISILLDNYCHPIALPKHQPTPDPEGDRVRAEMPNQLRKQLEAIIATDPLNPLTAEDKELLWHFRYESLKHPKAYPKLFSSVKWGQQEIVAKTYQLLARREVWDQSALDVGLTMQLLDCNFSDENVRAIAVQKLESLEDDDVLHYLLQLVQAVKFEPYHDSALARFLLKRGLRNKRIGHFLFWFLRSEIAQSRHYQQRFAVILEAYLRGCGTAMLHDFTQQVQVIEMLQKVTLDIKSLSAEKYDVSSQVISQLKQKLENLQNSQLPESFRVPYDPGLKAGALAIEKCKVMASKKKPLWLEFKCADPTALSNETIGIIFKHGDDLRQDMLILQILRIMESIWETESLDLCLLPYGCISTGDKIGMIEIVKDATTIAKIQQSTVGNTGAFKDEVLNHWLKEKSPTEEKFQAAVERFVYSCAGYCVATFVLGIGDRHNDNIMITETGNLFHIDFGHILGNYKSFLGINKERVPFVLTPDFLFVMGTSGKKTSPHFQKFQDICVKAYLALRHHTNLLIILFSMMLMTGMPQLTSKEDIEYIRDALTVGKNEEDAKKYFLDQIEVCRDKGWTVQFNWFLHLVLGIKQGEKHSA

Chain of PI3-kinase p110-delta/p85-alpha (P27986 whole entry): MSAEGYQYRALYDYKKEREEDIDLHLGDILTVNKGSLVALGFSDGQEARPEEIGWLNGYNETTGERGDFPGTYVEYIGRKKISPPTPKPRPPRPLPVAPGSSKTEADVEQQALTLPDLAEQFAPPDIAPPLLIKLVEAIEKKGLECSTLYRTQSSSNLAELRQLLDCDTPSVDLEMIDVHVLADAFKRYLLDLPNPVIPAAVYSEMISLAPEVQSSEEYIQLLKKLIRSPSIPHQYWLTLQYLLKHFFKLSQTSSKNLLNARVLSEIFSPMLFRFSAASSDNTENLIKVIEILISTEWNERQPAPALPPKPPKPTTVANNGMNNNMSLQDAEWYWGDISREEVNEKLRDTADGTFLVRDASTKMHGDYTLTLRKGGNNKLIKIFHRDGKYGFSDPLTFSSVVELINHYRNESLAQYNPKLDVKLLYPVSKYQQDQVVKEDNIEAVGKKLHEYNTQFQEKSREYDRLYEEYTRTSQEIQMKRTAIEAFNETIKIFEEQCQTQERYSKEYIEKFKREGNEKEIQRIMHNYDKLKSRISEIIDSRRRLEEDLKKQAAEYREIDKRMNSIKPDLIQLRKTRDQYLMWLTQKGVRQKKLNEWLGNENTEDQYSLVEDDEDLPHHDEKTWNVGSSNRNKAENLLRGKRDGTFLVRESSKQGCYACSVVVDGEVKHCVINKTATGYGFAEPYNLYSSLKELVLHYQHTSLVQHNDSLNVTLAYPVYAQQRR
Chain of PI3-kinase p110-delta/p85-alpha (O00329 whole entry): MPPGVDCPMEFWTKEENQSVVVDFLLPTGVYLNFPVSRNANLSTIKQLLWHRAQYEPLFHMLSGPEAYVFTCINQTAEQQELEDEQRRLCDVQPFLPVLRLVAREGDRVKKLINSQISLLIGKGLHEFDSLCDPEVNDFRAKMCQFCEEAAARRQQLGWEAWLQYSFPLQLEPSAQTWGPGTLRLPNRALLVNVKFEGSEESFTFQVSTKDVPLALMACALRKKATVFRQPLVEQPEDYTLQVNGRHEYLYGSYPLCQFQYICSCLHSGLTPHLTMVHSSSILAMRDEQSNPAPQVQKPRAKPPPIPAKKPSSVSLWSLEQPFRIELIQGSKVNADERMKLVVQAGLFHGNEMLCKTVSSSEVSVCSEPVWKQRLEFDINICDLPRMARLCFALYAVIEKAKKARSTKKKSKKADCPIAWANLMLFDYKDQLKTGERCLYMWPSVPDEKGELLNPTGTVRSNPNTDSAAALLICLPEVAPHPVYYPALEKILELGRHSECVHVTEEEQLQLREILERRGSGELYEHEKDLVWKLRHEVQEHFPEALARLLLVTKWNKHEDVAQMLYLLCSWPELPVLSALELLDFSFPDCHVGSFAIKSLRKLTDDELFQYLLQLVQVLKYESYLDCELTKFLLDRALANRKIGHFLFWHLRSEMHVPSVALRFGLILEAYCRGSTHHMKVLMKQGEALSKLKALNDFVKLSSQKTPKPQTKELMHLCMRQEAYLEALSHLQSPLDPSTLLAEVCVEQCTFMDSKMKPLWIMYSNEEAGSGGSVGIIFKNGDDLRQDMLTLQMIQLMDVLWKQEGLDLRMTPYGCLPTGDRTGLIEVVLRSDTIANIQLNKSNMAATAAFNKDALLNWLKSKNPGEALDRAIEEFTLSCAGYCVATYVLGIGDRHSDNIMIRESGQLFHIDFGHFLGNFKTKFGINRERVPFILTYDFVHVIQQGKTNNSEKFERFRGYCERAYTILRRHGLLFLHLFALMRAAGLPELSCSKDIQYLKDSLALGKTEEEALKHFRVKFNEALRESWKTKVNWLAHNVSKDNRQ
Chain of PI3-kinase p110-alpha/p85-alpha (P27986 whole entry): as the sequence (P27986 whole entry) above
Chain of PI3-kinase p110-alpha/p85-alpha (P42336 whole entry): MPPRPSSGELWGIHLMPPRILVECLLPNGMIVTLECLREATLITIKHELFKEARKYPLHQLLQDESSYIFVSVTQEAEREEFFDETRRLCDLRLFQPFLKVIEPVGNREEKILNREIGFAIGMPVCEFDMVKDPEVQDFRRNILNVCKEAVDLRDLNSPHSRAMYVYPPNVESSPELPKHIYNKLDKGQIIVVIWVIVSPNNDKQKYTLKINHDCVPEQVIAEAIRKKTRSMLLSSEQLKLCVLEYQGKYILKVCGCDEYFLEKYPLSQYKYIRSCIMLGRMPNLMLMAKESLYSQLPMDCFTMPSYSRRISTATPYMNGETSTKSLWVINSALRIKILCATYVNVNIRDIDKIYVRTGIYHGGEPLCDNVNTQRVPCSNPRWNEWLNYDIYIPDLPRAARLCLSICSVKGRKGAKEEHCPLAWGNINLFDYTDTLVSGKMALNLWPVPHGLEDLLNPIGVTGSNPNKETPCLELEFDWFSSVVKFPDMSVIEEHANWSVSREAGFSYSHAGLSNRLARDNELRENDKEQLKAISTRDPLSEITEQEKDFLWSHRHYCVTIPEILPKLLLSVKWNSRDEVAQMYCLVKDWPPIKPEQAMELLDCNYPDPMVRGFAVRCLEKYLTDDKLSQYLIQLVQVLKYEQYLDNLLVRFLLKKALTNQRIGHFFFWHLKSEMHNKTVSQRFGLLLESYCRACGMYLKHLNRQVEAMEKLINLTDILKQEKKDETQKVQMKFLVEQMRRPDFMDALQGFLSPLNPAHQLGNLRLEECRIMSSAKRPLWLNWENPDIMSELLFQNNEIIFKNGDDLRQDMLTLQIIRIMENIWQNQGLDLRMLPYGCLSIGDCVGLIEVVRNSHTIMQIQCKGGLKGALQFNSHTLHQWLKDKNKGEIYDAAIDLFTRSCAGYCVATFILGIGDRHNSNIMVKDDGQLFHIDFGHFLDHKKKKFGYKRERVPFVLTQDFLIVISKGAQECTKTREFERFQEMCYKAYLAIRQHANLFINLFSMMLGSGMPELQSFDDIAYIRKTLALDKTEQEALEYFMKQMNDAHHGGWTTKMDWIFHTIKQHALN
Chain of PI3K p110 beta/p85 alpha (P27986 whole entry, canonical isoform): as the sequence (P27986 whole entry) above
Chain of PI3K p110 beta/p85 alpha (P42338 whole entry, canonical isoform): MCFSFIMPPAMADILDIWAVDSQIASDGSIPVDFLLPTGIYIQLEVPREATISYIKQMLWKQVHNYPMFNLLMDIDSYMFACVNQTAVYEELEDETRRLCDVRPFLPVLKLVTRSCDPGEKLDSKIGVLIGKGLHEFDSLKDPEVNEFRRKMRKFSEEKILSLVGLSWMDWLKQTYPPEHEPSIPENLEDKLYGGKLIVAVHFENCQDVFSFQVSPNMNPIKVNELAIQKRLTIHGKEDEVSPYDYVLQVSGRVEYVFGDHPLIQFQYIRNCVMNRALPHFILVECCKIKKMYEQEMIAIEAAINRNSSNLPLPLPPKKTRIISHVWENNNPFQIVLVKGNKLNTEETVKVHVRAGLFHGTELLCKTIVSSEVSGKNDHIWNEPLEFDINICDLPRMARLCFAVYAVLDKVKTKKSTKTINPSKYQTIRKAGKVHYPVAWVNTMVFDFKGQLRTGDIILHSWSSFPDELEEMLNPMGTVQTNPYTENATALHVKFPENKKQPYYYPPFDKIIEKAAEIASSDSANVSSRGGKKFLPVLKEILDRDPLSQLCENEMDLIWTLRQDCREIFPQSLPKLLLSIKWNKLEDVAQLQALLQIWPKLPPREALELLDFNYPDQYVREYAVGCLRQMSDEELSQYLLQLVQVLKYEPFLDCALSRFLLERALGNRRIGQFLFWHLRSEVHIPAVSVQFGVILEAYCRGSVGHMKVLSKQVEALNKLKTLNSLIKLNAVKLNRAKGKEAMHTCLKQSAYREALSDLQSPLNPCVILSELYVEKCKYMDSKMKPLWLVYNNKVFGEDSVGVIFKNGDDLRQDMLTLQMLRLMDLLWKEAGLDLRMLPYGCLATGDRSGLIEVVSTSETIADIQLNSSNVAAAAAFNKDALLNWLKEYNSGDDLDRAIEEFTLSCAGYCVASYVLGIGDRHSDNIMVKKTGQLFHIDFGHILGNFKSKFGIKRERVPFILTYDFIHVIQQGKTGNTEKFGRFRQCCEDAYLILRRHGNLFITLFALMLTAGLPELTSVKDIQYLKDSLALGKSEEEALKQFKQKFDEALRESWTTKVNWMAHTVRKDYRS

As usually defined, the IC50 is the concentration needed to halve the response being measured. Consider `COc1ncc(-c2cc(NC(=O)c3coc(CN4CCN(Cc5cccnc5)CC4)n3)c3cnn(C)c3n2)cc1NS(C)(=O)=O`, for which the IC50 in data set [1] amounted to 0.00075 µM. The remaining at 16 h, 2 µM turned out to be 0.5% in data set [2] and 90.3% in [3]. Also, the Ratio IC50 in data set [4] stood at 290.

In the case of `COc1ncc(-c2cc(O[C@@H]3CCN(Cc4cnn(C)c4)C3)c3cnn(C)c3n2)cc1NS(C)(=O)=O`, the IC50 in data set [1] was determined as 0.0082 µM. For the same compound, the Ratio IC50 in [4] came out at 71.

`COc1ncc(-c2cc(O[C@@H]3CCN(C(=O)c4ccccc4)C3)c3cnn(C)c3n2)cc1NS(C)(=O)=O`: the IC50 in data set [1] worked out at 0.016 µM. Besides, the Ratio IC50 in data set [4] came to 5.3.

As for `COc1ncc(-c2cc(N[C@@H]3CCN(C(=O)C4CCOCC4)C3)c3cnn(C)c3n2)cc1NS(C)(=O)=O`, the concentration for half-maximal inhibition (IC50) in data set [1] was found to be 0.11 µM. Further, the Ratio IC50 in [4] is 3.2.

Broadly, the half-life is how long it takes for the measured level to halve. The low end stands for fast loss, the high end for slow loss. The Tmax is the time at which the peak concentration occurs. By AUC is commonly meant concentration integrated over time. One may read the bioavailability as the share of a dose that reaches the circulation, judged against a reference dose that is usually intravenous. A low value points to little systemic uptake. For orientation: Cmax means the highest concentration seen after dosing. With `COc1ncc(-c2cc(NC(=O)c3coc(CN4CCN(C(C)C)CC4)n3)c3cnn(C)c3n2)cc1NS(C)(=O)=O`, the half-life in data set [5] is 22 min. The 50% inhibitory concentration (IC50) in data set [1] came to 0.0084 µM; in data set [8] it was 0.33 µM. Besides, the Tmax in data set [6] is 120 min. In addition, the Vd in data set [7] was 4.03 L/kg. For the same compound, the figures for the remaining at 16 h, 2 µM in data set [2] and in data set [3] were 0.4% and 79.7%, respectively. This compound showed an AUC in [9] of 0.0456 µg·h/mL. In data set [10], the bioavailability amounted to 16%. This compound also showed a clearance in data set [11] of 10.2 L/h/kg. For the same compound, the Ratio IC50 in [4] turned out to be 40. The compound also had a peak concentration (Cmax) in [12] of 0.0199 µg/mL.

For `COc1ncc(-c2cc(N(C)[C@@H]3CCN(C(=O)C4CCOCC4)C3)c3cnn(C)c3n2)cc1NS(C)(=O)=O`, the IC50 in data set [1] is 0.23 µM.

As for `COc1ncc(-c2cc(O[C@@H]3CCN(C(=O)C4(C)CCOCC4)C3)c3cnn(C)c3n2)cc1NS(C)(=O)=O`, in data set [1], the IC50 was determined as 0.018 µM.

With `COc1ncc(-c2cc(O[C@@H]3CCN(Cc4ccccc4)C3)c3cnn(C)c3n2)cc1NS(C)(=O)=O`, in data set [1], the IC50 is 0.0045 µM. Besides, in data set [4], the Ratio IC50 turned out to be 160.

For `COc1ncc(-c2cc(O[C@@H]3CCN(CC4CCOCC4)C3)c3cnn(C)c3n2)cc1NS(C)(=O)=O`, in data set [1], the IC50 is 0.018 µM. In addition, the Ratio IC50 in data set [4] worked out at 29.

Take `COc1ncc(-c2cc(O[C@H]3CCN(C(=O)C4CCOCC4)C3)c3cnn(C)c3n2)cc1NS(C)(=O)=O`: in data set [1], the IC50 was found to be 0.053 µM. Besides, the Ratio IC50 in data set [4] worked out at 13.

On to `COc1ncc(-c2cc(O[C@@H]3CCN(S(=O)(=O)C4CCOCC4)C3)c3cnn(C)c3n2)cc1NS(C)(=O)=O`, for which the IC50 in data set [1] amounted to 0.038 µM. Moreover, the Ratio IC50 in data set [4] was 2.

`COc1ncc(-c2cc(O[C@@H]3CCN(Cc4c(C)nn(C)c4C)C3)c3cnn(C)c3n2)cc1NS(C)(=O)=O`: the IC50 is 0.52 µM in data set [13], 0.0045 µM in data set [1] and greater than 10 µM in data set [14]. In data set [5], this compound showed a half-life of 84.6 min. The Tmax in data set [6] was determined as 15 min. Also, the Vd in data set [7] was found to be 2.82 L/kg. Moreover, the AUC in [9] stood at 0.346 µg·h/mL. Moreover, in data set [10], the bioavailability stood at 49%. In data set [11], the clearance is 4.1 L/h/kg. For the same compound, in [4], the Ratio IC50 turned out to be 320. In [12], the Cmax was 0.298 µg/mL.

With `COc1ncc(-c2cc(NC(=O)c3coc(CN4CCN(CCN5CCOCC5)CC4)n3)c3cnn(C)c3n2)cc1NS(C)(=O)=O`, the half-maximal inhibitory concentration (IC50) in [1] is 0.0033 µM. For the same compound, the remaining at 16 h, 2 µM is 17.6% in [2] and 92.3% in [3]. Besides, the Ratio IC50 in data set [4] turned out to be 250.

Take `COc1ncc(-c2cc(O[C@@H]3CCN(C4CCOCC4)C3)c3cnn(C)c3n2)cc1NS(C)(=O)=O`: the IC50 in [1] is 0.052 µM. Further, the Ratio IC50 in [4] worked out at 21.

As to `COc1ncc(-c2cc(O[C@@H]3CCN(C(=O)CC4CCOCC4)C3)c3cnn(C)c3n2)cc1NS(C)(=O)=O`, the IC50 in data set [1] was 0.036 µM. Also, in data set [4], the Ratio IC50 was determined as 17.

On to `COc1ncc(-c2cc(O[C@@H]3CCN(C(=O)C4CCOCC4)C3)c3cnn(C)c3n2)cc1NS(C)(=O)=O`, for which, in [5], the half-life is 151 min. The IC50 in data set [1] is 0.0053 µM. The Tmax in data set [6] is 15 min. In addition, the Vd in [7] is 2.37 L/kg. Moreover, the remaining at 16 h, 2 µM in data set [2] amounted to 109%. The AUC in data set [9] was 1.64 µg·h/mL. Further, the bioavailability in data set [10] is 71.1%. In [11], this compound returned a clearance of 1.47 L/h/kg. Also, the Ratio IC50 in data set [4] was found to be 92. Moreover, the highest concentration (Cmax) in data set [12] came to 0.861 µg/mL.
